From patent publication US3966718A, “7-β-Acylamino-ceph-3-ems and salts and esters therefor” (Beecham Group Limited, priority 1973, dated 1976)
Converted amounts (≈) assume the structure as drawn. Where a name gives a salt, the structure may show the parent alone. Read-outs that look alike come from different tables or passages of the source.

How the values were obtained:
Format in all cases: cell-based
[1] = system: Gram-positive and Gram-negative organisms; assay: antibacterial activity (general statement); settings: in words
β-Haemolytic Strep. CN10 = assay: MIC on (nutrient) agar; settings: β-Haemolytic Strep. CN10, agar; read-out: minimum inhibitory concentration (MIC)
Staph. aureus Oxford = assay: MIC on (nutrient) agar; settings: Staphylococcus aureus, read-out: minimum inhibitory concentration (MIC)
Shigella sonnei = assay: MIC on nutrient agar; settings: read-out: minimum inhibitory concentration (MIC)
Klebsiella aerogenes A = assay: MIC on nutrient agar; settings: Klebsiella aerogenes A, nutrient agar; read-out: minimum inhibitory concentration (MIC)
E. coli JT 1 = assay: MIC on nutrient agar; settings: Escherichia coli
Proteus mirabilis C977 = assay: MIC on nutrient agar
Salmonella typhi = assay: MIC on nutrient agar; settings: Salmonella enterica, read-out: minimum inhibitory concentration (MIC)
B. subtilis = assay: MIC on (nutrient) agar; settings: Bacillus subtilis; B. subtilis, agar; read-out: minimum inhibitory concentration (MIC)
Staph. aureus Russell = assay: MIC on (nutrient) agar; settings: Staphylococcus aureus; Staph. aureus Russell, agar; read-out: minimum inhibitory concentration (MIC)

Row | Structure (SMILES) | antibacterial activity [1] | MIC (β-Haemolytic Strep. CN10) | MIC (Staph. aureus Oxford) | MIC (Shigella sonnei) | MIC (Klebsiella aerogenes A) | MIC (E. coli JT 1; JT1, E. coli JT 1, nutrient agar, read-out: minimum inhibitory concentration (MIC)) | MIC (Proteus mirabilis C977; Proteus mirabilis C977, nutrient agar, read-out: minimum inhibitory concentration (MIC)) | MIC (Salmonella typhi) | MIC (B. subtilis) | MIC (Staph. aureus Russell) | MIC (E. coli JT 1; JT1, read-out: minimum inhibitory concentration (MIC)) | MIC (Proteus mirabilis C977; Proteus mirabilis, C977, read-out: minimum inhibitory concentration (MIC))
1 | O=C(Cc1cccs1)N[C@@H]1C(=O)N2C(C(=O)O)=C(Cc3cccnc3)CS[C@H]12 [Example 2, 3(3-pyridylmethyl)-7β-(2-thienylacetamido)-3-cephem-4-carboxylic acid] | essentially similar to the trifluoroacetate salt described in Example 1 |  |  |  |  |  |  |  |  |  |  | 
2 | O=C(Cc1ccncc1)N[C@@H]1C(=O)N2C(C(=O)O)=C(Cc3cccnc3)CS[C@H]12 [Example 17, 7β(4-pyridylacetamido)-3(3-pyridylmethyl)-3-cephem-4-carboxylic acid di-trifluoroacetic acid salt] |  | 0.12 µg/mL | 0.12 µg/mL | 25 µg/mL | 10 µg/mL | 25 µg/mL | 10 µg/mL | 10 µg/mL | 0.25 µg/mL | 25 µg/mL |  | 
3 | CN(C(=O)C=Cc1ccccc1)C(=O)N[C@@H](C(=O)N[C@@H]1C(=O)N2C(C(=O)O)=C(Cc3cccnc3)CS[C@H]12)c1ccccc1 [Example 20] |  | 0.25 µg/mL (≈ 0.409 µM) | 4 µg/mL (≈ 6.54 µM) | 63 µg/mL (≈ 103 µM) | 63 µg/mL (≈ 103 µM) |  |  | > 125 µg/mL | 32 µg/mL (≈ 52.3 µM) | 63 µg/mL (≈ 103 µM) | 125 µg/mL (≈ 204 µM) | > 125 µg/mL
